pEC50: −log10 of the molar value.

The first experiment deals with HBV rcDNA in HepDE19 cells. As to the kind of experiment: HepDE19 assay with bDNA quantitation of HBV rcDNA. The conditions noted are these: HepDE19 assay, inhibition of rcDNA formation, bDNA quantitation; read-out: DE-19bDNA EC50. It counts as cell-based, hepatitis B virus.
As to `CN(C(=O)c1cc(F)c(Br)c(F)c1)C1COCc2[nH]c(=O)c3cc(F)ccc3c21` (single isomer, unassigned) [Compound 166, 4-Bromo-3,5-difluoro-N-(8-fluoro-6-oxo-2,4,5,6-tetrahydro-1H-pyrano[3,4-c]isoquinolin-1-yl)-N-methylbenzamide], the pEC50 is 5.72. Still for that read-out and setting: with `CN(C(=O)c1cc(F)c(Br)c(F)c1)C1COCc2[nH]c(=O)c3cc(F)ccc3c21` (single isomer, unassigned) [Compound 167, 4-Bromo-3,5-difluoro-N-(8-fluoro-6-oxo-2,4,5,6-tetrahydro-1H-pyrano[3,4-c]isoquinolin-1-yl)-N-methylbenzamide] the figure was 8.00; with `CN(C(=O)c1cc(F)c(Cl)c(F)c1)C1CNCc2[nH]c(=O)c3cc(F)c(F)cc3c21` (single isomer, unassigned) [Compound 168, 4-Chloro-N-(8,9-difluoro-6-oxo-1,2,3,4,5,6-hexahydrobenzo[c][1,7]naphthyridin-1-yl)-3,5-difluoro-N-methylbenzamide], 4.95; with `CN(C(=O)c1cc(F)c(Cl)c(F)c1)C1CNCc2[nH]c(=O)c3cc(F)c(F)cc3c21` (single isomer, unassigned) [Compound 169, 4-Chloro-N-(8,9-difluoro-6-oxo-1,2,3,4,5,6-hexahydrobenzo[c][1,7]naphthyridin-1-yl)-3,5-difluoro-N-methylbenzamide], 7.40. Consider `CN(C(=O)c1cc(F)c(Br)c(F)c1)C1CNCc2[nH]c(=O)c3cc(F)ccc3c21` (single isomer, unassigned) [Compound 170, 4-Bromo-3,5-difluoro-N-(8-fluoro-6-oxo-1,2,3,4,5,6-hexahydrobenzo[c][1,7]naphthyridin-1-yl)-N-methylbenzamide], for which the pEC50 was 4.66. Regarding `CN(C(=O)c1cc(F)c(Br)c(F)c1)C1CNCc2[nH]c(=O)c3cc(F)ccc3c21` (single isomer, unassigned) [Compound 171, 4-Bromo-3,5-difluoro-N-(8-fluoro-6-oxo-1,2,3,4,5,6-hexahydrobenzo[c][1,7]naphthyridin-1-yl)-N-methylbenzamide], the pEC50 was 6.29.

For `CN(C(=O)c1cc(F)c(Cl)c(F)c1)C1COCc2[nH]c(=O)c3cc(F)ccc3c21` (single isomer, unassigned) [Compound 174, 4-Chloro-3,5-difluoro-N-(8-fluoro-6-oxo-2,4,5,6-tetrahydro-1H-pyrano[3,4-c]isoquinolin-1-yl)-N-methylbenzamide], the pEC50 was 5.29. Still for that read-out and setting: the result for `CN(C(=O)c1cc(F)c(Cl)c(F)c1)C1COCc2[nH]c(=O)c3cc(F)ccc3c21` (single isomer, unassigned) [Compound 175, 4-Chloro-3,5-difluoro-N-(8-fluoro-6-oxo-2,4,5,6-tetrahydro-1H-pyrano[3,4-c]isoquinolin-1-yl)-N-methylbenzamide] reads 7.52. Still for that read-out and setting: the result for `CN(C(=O)c1cc(F)c(C(F)F)c(F)c1)C1COCc2[nH]c(=O)c3cc(F)ccc3c21` (single isomer, unassigned) [Compound 178, 4-(Difluoromethyl)-3,5-difluoro-N-(8-fluoro-6-oxo-1,4,5,6-tetrahydro-2H-pyrano[3,4-c]isoquinolin-1-yl)-N-methylbenzamide] reads 5.13; that for `CN(C(=O)c1cc(F)c(C(F)F)c(F)c1)C1COCc2[nH]c(=O)c3cc(F)ccc3c21` (single isomer, unassigned) [Compound 179, 4-(Difluoromethyl)-3,5-difluoro-N-(8-fluoro-6-oxo-1,4,5,6-tetrahydro-2H-pyrano[3,4-c]isoquinolin-1-yl)-N-methylbenzamide], 7.30; that for `CN(C(=O)c1cc2c(C(F)F)cccc2[nH]1)C1COCc2[nH]c(=O)c3cc(F)ccc3c21` (single isomer, unassigned) [Compound 181, 4-(Difluoromethyl)-N-(8-fluoro-6-oxo-1,4,5,6-tetrahydro-2H-pyrano[3,4-c]isoquinolin-1-yl)-N-methyl-1H-indole-2-carboxamide], 5.26. Consider `CN(C(=O)c1cc2c(C(F)F)cccc2[nH]1)C1COCc2[nH]c(=O)c3cc(F)ccc3c21` (single isomer, unassigned) [Compound 182, 4-(Difluoromethyl)-N-(8-fluoro-6-oxo-1,4,5,6-tetrahydro-2H-pyrano[3,4-c]isoquinolin-1-yl)-N-methyl-1H-indole-2-carboxamide], for which the negative-log EC50 (pEC50) was 6.12. Still for that read-out and setting: the result for `CN(C(=O)c1cc(F)c(C(F)F)c(F)c1)C1CNCc2[nH]c(=O)c3cc(F)c(F)cc3c21` (single isomer, unassigned) [Compound 184, N-(8,9-Difluoro-6-oxo-1,2,3,4,5,6-hexahydrobenzo[c][1,7]naphthyridin-1-yl)-4-(difluoromethyl)-3,5-difluoro-N-methylbenzamide] reads 7.15. Same read-out and setting: with `CN(C(=O)c1cc(F)c(C(F)F)c(F)c1)C1CNCc2[nH]c(=O)c3cc(F)ccc3c21` (single isomer, unassigned) [Compound 185, 4-(Difluoromethyl)-3,5-difluoro-N-(8-fluoro-6-oxo-1,2,3,4,5,6-hexahydrobenzo[c][1,7]naphthyridin-1-yl)-N-methylbenzamide] the figure was 4.62. For `CN(C(=O)c1cc(F)c(C(F)F)c(F)c1)C1CNCc2[nH]c(=O)c3cc(F)ccc3c21` (single isomer, unassigned) [Compound 186, 4-(Difluoromethyl)-3,5-difluoro-N-(8-fluoro-6-oxo-1,2,3,4,5,6-hexahydrobenzo[c][1,7]naphthyridin-1-yl)-N-methylbenzamide], the pEC50 was 6.70. Still for that read-out and setting: with `CN(C(=O)c1cc2c(C(F)F)cccc2[nH]1)C1CNCc2[nH]c(=O)c3cc(F)c(F)cc3c21` (single isomer, unassigned) [Compound 207, N-(8,9-Difluoro-6-oxo-1,2,3,4,5,6-hexahydrobenzo[c][1,7]naphthyridin-1-yl)-4-(difluoromethyl)-N-methyl-1H-indole-2-carboxamide] the figure was 5.25. Still for that read-out and setting: the result for `CN(C(=O)c1cc2c(C(F)F)cccc2[nH]1)C1CNCc2[nH]c(=O)c3cc(F)c(F)cc3c21` (single isomer, unassigned) [Compound 208, N-(8,9-Difluoro-6-oxo-1,2,3,4,5,6-hexahydrobenzo[c][1,7]naphthyridin-1-yl)-4-(difluoromethyl)-N-methyl-1H-indole-2-carboxamide] reads 7.52.

Staying with this experiment, now noted: Hepatitis B virus, HepDE19, HepDE19 assay, inhibition of rcDNA formation, bDNA quantitation; read-out: DE-19bDNA EC50.
On to `CN(C(=O)c1cc(F)c(Cl)c(F)c1)C1CNCc2[nH]c(=O)c3cc(F)ccc3c21` (single isomer, unassigned) [Compound 176, 4-Chloro-3,5-difluoro-N-(8-fluoro-6-oxo-1,2,3,4,5,6-hexahydrobenzo[c][1,7]naphthyridin-1-yl)-N-methylbenzamide], for which the pEC50 is 4.71. Same read-out and setting: the result for `CN(C(=O)C(N)c1ccc(Cl)cc1)[C@@H]1COCc2[nH]c(=O)c3cc(F)c(F)cc3c21` (single isomer, unassigned) [Compound 199] reads 4.83.

As to `CN(C(=O)C(N)c1cccc(Cl)c1)[C@@H]1COCc2[nH]c(=O)c3cc(F)c(F)cc3c21` (single isomer, unassigned) [Compound 202], the pEC50 was 4.80.
